Drawing on patent US6596713B1, “Steroid esters and amides, process for their production and their pharmaceutical use” (priority 1994, dated 2003), this text covers Solubility for 27 compounds.

The format of the data set is physicochemical. Conditions: temperature in which 50 mg of substance is dissolved in 1 ml of a 1:4 benzyl benzoate/castor oil mixture; lower temperature = better solubility.
Consider “6′-(4-Fluorophenyl)-17α-(3-hydroxypropyl)-9,11α-dihydro-17β-hydroxy-4′H-naphtho[3′,2′,1′:10,9,11]estr-4-en-3-one [Ref. 6, reference compound]”, for which the Solubility turned out to be 23 °C.

On to “6′-(4-Fluorophonyl)-17α-(3-hydroxyprop-1-inyl)-9,11α-dihydro-17β-hydroxy-4′H-naphtho[3′,2′,1′:10,9,11]estr-4-on-3-one [Ref. 5, reference compound]”, for which the Solubility stood at 23 °C.

For `CC(C)C(=O)OC/C=C\[C@]1(O)CC[C@H]2[C@@H]3CCC4=CC(=O)CC[C@@]45Cc4cc(-c6ccc(C#N)cc6)ccc4[C@@H](C[C@@]21C)[C@@H]35` [Example 6, (Z)-6′-(4-Cyanophenyl)-9,11α-dihydro-17β-hydroxy-17α-[3-(1-oxo-2-methylpropoxy)-1-propenyl]-4′H-naphtho[3′,2′,1′:10,9,11]estr-4-en-3-one], the Solubility stood at 100 °C.

Turning to `CC(C)(C)CC(=O)OC/C=C\[C@]1(O)CC[C@H]2[C@@H]3CCC4=CC(=O)CC[C@@]45Cc4cc(-c6ccc(C#N)cc6)ccc4[C@@H](C[C@@]21C)[C@@H]35` [Example 7, (Z)-6′-(4-Cyanophenyl)-9,11α-dihydro-17α-[3-(3,3-dimethyl-1-oxobutoxy)-1-propenyl]-17β-hydroxy-4′H-naphtho[3′,2′,1′:10,9,11]estr-4-en-3-one], the Solubility amounted to 23 °C.

On to `COC(=O)CCC(=O)OCC=CC1(O)CCC2C3CCC4=CC(=O)CCC45Cc4cc(-c6ccc(C#N)cc6)ccc4C(CC21C)C35` (stereo not drawn) [Example 9, (Z)-6′-(4-Cyanophenyl)-9,11α-dihydro-17α-[3-(1,4-dioxo-4-methoxybutoxy)-1-propenyl]-17β-hydroxy-4′H-naphtho[3′,2′,1′:10,9,11]estr-4-en-3-one], for which the Solubility was 50 °C.

`CCOCCC(=O)OCC=CC1(O)CCC2C3CCC4=CC(=O)CCC45Cc4cc(-c6ccc(C#N)cc6)ccc4C(CC21C)C35` (stereo not drawn) [Example 11, (Z)-6′-(4-Cyanophenyl)-9,11α-dihydro-17α-[3-(3-ethoxy-1-oxopropoxy)-1-propenyl]-17βhydroxy-4′H-naphtho[3′,2′,1′:10,9,11]estr-4-en-3-one]: the Solubility came to 100 °C.

Consider `CC12CC3c4ccc(-c5ccc(C#N)cc5)cc4CC45CCC(=O)C=C4CCC(C35)C1CCC2(O)C=CCOC(=O)CN` (stereo not drawn) [Example 12, (Z)-17α-[3-[(Aminoacetyl)oxy]-1-propenyl]-6′-(4-cyanophenyl)-9,11α-dihydro-17β-hydroxy-4′H-naphtho[3′,2′,1′:10,9,11]estr-4-en-3-one], for which the Solubility worked out at 100 °C.

Regarding `CC(N)C(=O)OCC=CC1(O)CCC2C3CCC4=CC(=O)CCC45Cc4cc(-c6ccc(C#N)cc6)ccc4C(CC21C)C35` (stereo not drawn) [Example 14, [S-(Z)]-17α-[3-(2-Amino-1-oxopropoxy)-1-propenyl]-6′-(4-cyanophenyl)-9,11α-dihydro-17β-hydroxy-4′H-naphtho [3′,2′,1′:10,9,11]estr-4-en-3-one], the Solubility came to 23 °C.

With `CCCCCCC(=O)OCC=CC1(O)CCC2C3CCC4=CC(=O)CCC45Cc4cc(-c6cccnc6)ccc4C(CC21C)C35` (stereo not drawn) [Example 20, (Z)-9,11α-Dihydro-17βhydroxy-17α-[3-[(1-oxoheptyl)oxy]-1-propenyl]-6′-(3-pyridinyl)-4′H-naphtho[3′,2′,1′:10,9,11]estr-4-en-3-one], the Solubility was 50 °C.

Turning to `CC(NC(=O)OC(C)(C)C)C(=O)OCCCC1(O)CCC2C3CCC4=CC(=O)CCC4=C3C(c3ccc(N(C)C)cc3)CC21C` [Example 27, (S)-11β-[4-(Dimethylamino)phenyl]-17β-[3-[2-[[(1,1-dimethylethoxy)-carbonyl]amino]-1-oxopropoxy]propyl]-17α-hydroxy-13α-estra-4,9-dien-3-one], the Solubility worked out at 23 °C.

Take `CC(C)[C@H](NC(=O)OC(C)(C)C)C(=O)OCCC[C@@]1(O)CC[C@H]2[C@@H]3CCC4=CC(=O)CCC4=C3[C@@H](c3ccc(N(C)C)cc3)C[C@]21C` [Example 29, (S)-11β-[4-(Dimethylamino)phenyl]-17α-[3-[2-[[(1,1-dimethylethoxy)-carbonyl]amino]-3-methyl-1-oxobutoxy]-1-propyl]-17α-hydroxy-13α-estra-4,9-dien-3-one]: the Solubility was determined as 23 °C.

For `C[C@H](N)C(=O)OC/C=C\[C@]1(O)CC[C@H]2[C@@H]3CCC4=CC(=O)CC[C@@H]4[C@H]3[C@@H](c3ccc(N(C)C)cc3)C[C@@]21C` [Example 30, [S-(Z)]-17α-[3-(2-Amino-1-oxopropoxy)-1-propenyl]-11β-[4-(dimethylamino)phenyl]-17βhydroxyestr-4-en-3-one], the Solubility is 50 °C.

`CC(NC(=O)OC(C)(C)C)C(=O)OCC=CC1(O)CCC2C3CCC4=CC(=O)CCC4C3C(c3ccc(N(C)C)cc3)CC21C` (stereo not drawn) [Example 31, [S-(Z)]-11β-[4-(Dimethylamino)phenyl]-17α-[3-[2-[[(1,1-dimethylethoxy)carbonyl]amino]-1-oxopropoxy]-1-propenyl]-17β-hydroxyestr-4-en-3-one]: the Solubility was found to be 23 °C.

`CC(C)C(NC(=O)OC(C)(C)C)C(=O)OCC=CC1(O)CCC2C3CCC4=CC(=O)CCC4C3C(c3ccc(N(C)C)cc3)CC21C` (stereo not drawn) [Example 32, [S-(Z)]-11β-[4-(Dimethylamino)phenyl]-17α-[3-[2-[(1,1-dimethylethoxy)carbonyl]amino]-3-methyl-1-oxobutoxyl]-1-propenyl]-17β-hydroxyestr-4-en-3-one]: the Solubility came out at 23 °C.

Turning to `CC(NC(=O)OC(C)(C)C)C(=O)OCC=CC1(O)CCC2C3CCC4=CC(=O)CCC4C3C(c3ccc(-c4ccc(C#N)cc4)cc3)CC21C` (stereo not drawn) [Example 33, [S-(z)]-4′-[17α-[3-[2-[[(1,1-Dimethylethoxy)carbonyl]amino]-1-oxopropoxy]-1-propenyl]-17β-hydroxy-3-oxoestr-4-en-11β-yl][1,1′-biphenyl]-4-carbonitrile], the Solubility is 50 °C.

Consider `CC(C)C(NC(=O)OC(C)(C)C)C(=O)OCC=CC1(O)CCC2C3CCC4=CC(=O)CCC4C3C(c3ccc(-c4ccc(C#N)cc4)cc3)CC21C` (stereo not drawn) [Example 34, [S-(Z)]-4′-[17α-[3-[2-[[(1,1-Dimethylethoxy)carbonyl]amino]-3-methyl-1-oxobutoxy]-1-propenyl]-17β-hydroxy-3-oxoestr-4-en-11β-yl][1,1′-biphenyl]-4-carbonitrile], for which the Solubility was found to be 50 °C.

On to `CN(C)c1ccc(C2CC3(C)C(CCC3(O)CCCOC(=O)CNC(=O)OC(C)(C)C)C3CCC4=CC(=O)CCC4=C23)cc1` [Example 36, (S)-11β-[4-(Dimethylamino)phenyl]-17β-[3-[[[(1,1-dimethylethoxy)carbonyl]amino]acetyloxy]propyl]-17α-hydroxy-13α-estra-4,9-dien-3-one], for which the Solubility came out at 23 °C.

With `CN(C)c1ccc(C2CC3(C)C(CCC3(O)C=CCOC(=O)CNC(=O)OC(C)(C)C)C3CCC4=CC(=O)CCC4C23)cc1` (stereo not drawn) [Example 37, [S-(Z)]-11β-[4-(Dimethylamino)phenyl]-17α-[3-[[[(1,1-dimethylethoxy)carbonyl]amino]acetyloxy]-1-propenyl]-17β-hydroxyestr-4-en-3-one], the Solubility worked out at 23 °C.

For `CC(C)(C)OC(=O)NCC(=O)OCC=CC1(O)CCC2C3CCC4=CC(=O)CCC4C3C(c3ccc(-c4ccc(C#N)cc4)cc3)CC21C` (stereo not drawn) [Example 38, [S-(Z)]-4′-[17α-[3-[[[(1,1-Dimethylethoxy)carbonyl]-amino]acetyloxy]-1-propenyl]-17β-hydroxy-3-oxoestr-4-en-11β-yl][1,1′-biphenyl]-4-carbonitrile], the Solubility is 23 °C.

For the compound `CC(C)C(N)C(=O)OCC=CC1(O)CCC2C3CCC4=CC(=O)CCC4C3C(c3ccc(-c4ccc(C#N)cc4)cc3)CC21C` (stereo not drawn) [Example 39, [S-(Z)]-4′-[17α-[3-[2-Amino-3-methyl-1-oxobutoxy]-1-propenyl]-17β-hydroxy-3-oxoestr-4-en-11β-yl][1,1′-biphenyl]-4-carbonitrile], the Solubility stood at 50 °C.

With `CC12CC3c4ccc(-c5ccc(C#N)cc5)cc4CC45CCC(=O)C=C4CCC(C35)C1CCC2(O)C=CCO` (stereo not drawn) [Ref. 1, (Z)-6′-(4-cyanophenyl)-9,11α-dihydro-17β-hydroxy-17α-(3-hydroxy-1-propenyl)-4′H-naphtho[3′,2′,1′:10,9,11]estr-4-en-3-one, reference compound], the Solubility was >>100 °C.

Turning to `C[C@]12C[C@@H]3c4ccc(-c5cccnc5)cc4C[C@]45CCC(=O)C=C4CC[C@H]([C@H]35)[C@@H]1CC[C@@]2(O)/C=C\CO` [Ref. 2, (Z)-9,11α-dihydro-17β-hydroxy-17α-(3-hydroxy-1-propenyl)-6′-(3-pyridinyl)-4′H-naphtho[3′,2′,1′:10,9,11]estr-4-en-3-one, reference compound], the Solubility is >>100 °C.

As for “(S)-6′-(4-Fluorophanyl)-9,11α-dihydro-17α-[3-[2-[[(1,1-dimethylethoxy) carbonyl]amino]-1-oxopropoxy]-1-propyl]-17β-hydroxy-4′H-naphtho[3′,2′,1′:10,9,11]estr-4-on-3-one [Example 43]”, the Solubility turned out to be 23 °C.

“(S)-6′-(4-Fluorophanyl)-9,11α-dihydro-17α-[3-[2-[[(1,1-dimethylethoxy)carbonyl]amino]-1-oxopropoxy]-1-propinyl]-17β-hydroxy-4′H-naphtho[3′,2′,1′;10,9,11]estr-4-en-3-one [Example 42]”: the Solubility turned out to be 23 °C.

For “(S-(Z)]-6′-(4-Cyanophenyl)-9,11α-dihydro-17α-[3-[2-[[(1,1-dimethylethoxy)carbonyl]amino]-1-oxopropoxy]-1-propenyl]-17β-hydroxy-4′H-naphtho[3′,2′,1′:10,9,11]estr-4-en-3-one [Example 15]”, the Solubility was 23 °C.

For “(Z)-6′-(4-Cyanophenyl)-9,11α-dihydro-17α-[3-(1,4-dioxo-4-ethoxybutoxy)-1-propenyl]-17β-hydroxy-4′H-naphtho[3′,2′,1′:10,9,11]estr-4-en-3-one [Example 10]”, the Solubility is 50 °C.

Consider “(Z)-6′-(4-Cyanophenyl)-9,11α-dihydro-17α-[3-[[[[(1,1-dimethylethoxy)carbonyl]-amino]acetyl]oxy]-1-propenyl]-17βhydroxy-4′H-naphtho[3′,2′,1′:10,9,11]estr-4-en-3-one [Example 13]”, for which the Solubility amounted to 50 °C.
